The values below come from ChEMBL document CHEMBL1142505, “Synthesis and antitubercular activity of ferrocenyl diaminoalcohols and diamines” (2008).

This experiment has as its system Mycobacterium tuberculosis. Nature of the experiment: Antitubercular activity against Mycobacterium tuberculosis H37Rv after 2 days by mycobacteria growth indicator tube system. The conditions noted are these: 48 h. It counts as functional.

In brackets after ≈: the same amount, converted by molar mass. A value given as a limit tells only on which side of the number the result lay.

As usually defined, the MIC is the smallest concentration in the dilution series that meets the test's criterion for growth inhibition. The compound `c1ccc(CNCCNCc2ccccc2)cc1` registered an MIC above 64 µg/mL.
In turn, `CC(CNCc1ccccc1)NCc1ccccc1` (stereo not drawn) yielded an MIC above 64 µg/mL.
For `CC[C@@H](CO)NCCN[C@@H](CC)CO` [ETHAMBUTOL], the MIC stood at 2 µg/mL (≈ 9.79 µM).
